Experimental data taken from ChEMBL document CHEMBL1201861, “Genomics of Drug Sensitity in Cancer screening data, Wellcome Trust Sanger Institute”.
pIC50: −log10 of the molar value.

What was measured:
COLO-741 = test: cells; format: functional, cell-based; conditions: Homo sapiens
Description: SANGER: Inhibition of human COLO-741 cell growth in a cell viability assay.

DK-MG = test: cells; format: functional, cell-based; conditions: Homo sapiens;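 further: growth inhibition of DK-MG cells, read out with a cell viability assay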
Description: SANGER: Inhibition of human DK-MG cell growth in a cell viability assay.

Daoy = test: cells; format: functional, cell-based; conditions: Homo sapiens;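 further: daoy cell growth inhibition, read out as cell viability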
Description: SANGER: Inhibition of human Daoy cell growth in a cell viability assay.

G-402 = test: cells; format: functional, cell-based; conditions: Homo sapiens
Description: SANGER: Inhibition of human G-402 cell growth in a cell viability assay.

HCC38 = test: cells; format: functional, cell-based; conditions: Homo sapiens;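 further: cell viability assay on the human HCC38 cell line, with IC50 marking the concentration that inhibits cell growth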
Description: SANGER: Inhibition of human HCC38 cell growth in a cell viability assay.

HCC70 = test: cells; format: functional, cell-based; conditions: Homo sapiens;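 further: cell viability assay measuring how strongly the compound suppresses proliferation of HCC70 cells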
Description: SANGER: Inhibition of human HCC70 cell growth in a cell viability assay.

HEC-1 = test: cells; format: functional, cell-based; conditions: Homo sapiens;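 further: growth inhibition of the cell line, read out with a cell viability assay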
Description: SANGER: Inhibition of human HEC-1 cell growth in a cell viability assay.

HuCCT-1 = test: cells; format: functional, cell-based, HuCCT1; conditions: Homo sapiens;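 further: growth inhibition of HuCCT-1 cells, read out by a cell viability assay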
Description: SANGER: Inhibition of human HuCCT1 cell growth in a cell viability assay.

IMR-5 = test: cells; format: functional, cell-based; conditions: Homo sapiens;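 further: growth inhibition of human IMR-5 cells, read out with a cell viability assay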
Description: SANGER: Inhibition of human IMR-5 cell growth in a cell viability assay.

JIYOYE = test: cells; format: functional, cell-based; conditions: Homo sapiens
Description: SANGER: Inhibition of human JiyoyeP-2003 cell growth in a cell viability assay.

KYSE-520 cell line = test: cells; format: functional, cell-based; conditions: Homo sapiens;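 further: growth inhibition of human KYSE-520 cells, read out with a viability assay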
Description: SANGER: Inhibition of human KYSE-520 cell growth in a cell viability assay.

KYSE-70 cell line = test: cells; format: functional, cell-based; conditions: Homo sapiens;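 further: cell viability assay read-out, with IC50 expressing suppression of KYSE-70 cell growth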
Description: SANGER: Inhibition of human KYSE-70 cell growth in a cell viability assay.

L-540 = test: cells; format: functional, cell-based; conditions: Homo sapiens;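 further: growth inhibition of the human L-540 cell line, read out with a viability assay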
Description: SANGER: Inhibition of human L-540 cell growth in a cell viability assay.

LB647-SCLC = test: cells; format: functional, cell-based; conditions: Homo sapiens;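 further: cell growth inhibition, read out by a viability assay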
Description: SANGER: Inhibition of human LB647-SCLC cell growth in a cell viability assay.

LCLC-103H cell line = test: cells; format: functional, cell-based; conditions: Homo sapiens
Description: SANGER: Inhibition of human LCLC-103H cell growth in a cell viability assay.

LP-1 = test: cells; format: functional, cell-based; conditions: Homo sapiens;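 further: growth inhibition of human LP-1 cells, with the read-out taken from a cell viability assay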
Description: SANGER: Inhibition of human LP-1 cell growth in a cell viability assay.

M14 = test: cells; format: functional, cell-based; conditions: Homo sapiens;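 further: growth inhibition of M14 cells, read out with a cell viability assay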
Description: SANGER: Inhibition of human M14 cell growth in a cell viability assay.

MC-IXC = test: cells; format: functional, cell-based; conditions: Homo sapiens;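 further: growth inhibition of MC-IXC cells, read out with a cell viability assay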
Description: SANGER: Inhibition of human MC-IXC cell growth in a cell viability assay.

MCF7 = test: cells; format: functional, cell-based; conditions: Homo sapiens;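 further: growth inhibition of human MCF7 cells, read out with a cell viability assay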
Description: SANGER: Inhibition of human MCF7 cell growth in a cell viability assay.

MDA-MB-157 = test: cells; format: functional, cell-based; conditions: Homo sapiens
Description: SANGER: Inhibition of human MDA-MB-157 cell growth in a cell viability assay.

MDA-MB-175-VII = test: cells; format: functional, cell-based; conditions: Homo sapiens
MDA-MB-231 = test: cells; format: functional, cell-based; conditions: Homo sapiens
Description: SANGER: Inhibition of human MDA-MB-231 cell growth in a cell viability assay.

MG-63 = test: cells; format: functional, cell-based; conditions: Homo sapiens;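 further: growth inhibition of human MG-63 cells, read out with a cell viability assay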
Description: SANGER: Inhibition of human MG-63 cell growth in a cell viability assay.

MIA PaCa-2 = test: cells; format: functional, cell-based; conditions: Homo sapiens;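 further: growth inhibition of MIA PaCa-2 cells, read out with a cell viability assay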
Description: SANGER: Inhibition of human MIA-PaCa-2 cell growth in a cell viability assay.

MKN-45 = test: cells; format: functional, cell-based; conditions: Homo sapiens;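 further: growth inhibition of human MKN-45 cells, measured with a cell viability assay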
Description: SANGER: Inhibition of human MKN45 cell growth in a cell viability assay.

NALM-6 = test: cells; format: functional, cell-based; conditions: Homo sapiens;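 further: growth inhibition of NALM-6 cells, read out with a cell viability assay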
Description: SANGER: Inhibition of human NALM-6 cell growth in a cell viability assay.

NCI-H1417 = test: cells; format: functional, cell-based; conditions: Homo sapiens;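 further: human NCI-H1417 cells, growth inhibition determined with a cell viability readout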
Description: SANGER: Inhibition of human NCI-H1417 cell growth in a cell viability assay.

NCI-H1522 = test: cells; format: functional, cell-based; conditions: Homo sapiens;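 further: growth inhibition of NCI-H1522 cells, read out with a cell viability assay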
Description: SANGER: Inhibition of human NCI-H1522 cell growth in a cell viability assay.

NCI-H2122 = test: cells; format: functional, cell-based; conditions: Homo sapiens;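 further: growth inhibition of the cells, read out with a cell viability assay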
Description: SANGER: Inhibition of human NCI-H2122 cell growth in a cell viability assay.

NCI-H441 = test: cells; format: functional, cell-based; conditions: Homo sapiens;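 further: growth inhibition of NCI-H441 cells, read out with a cell viability assay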
Description: SANGER: Inhibition of human NCI-H441 cell growth in a cell viability assay.

NCI-H522 = test: cells; format: functional, cell-based; conditions: Homo sapiens;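 further: cell viability assay measuring growth inhibition of human NCI-H522 cells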
Description: SANGER: Inhibition of human NCI-H522 cell growth in a cell viability assay.

NCI-H64 = test: cells; format: functional, cell-based; conditions: Homo sapiens;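 further: growth inhibition of NCI-H64 cells, read out with a cell viability assay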
Description: SANGER: Inhibition of human NCI-H64 cell growth in a cell viability assay.

NCI-H810 = test: cells; format: functional, cell-based; conditions: Homo sapiens;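 further: IC50 reflects inhibition of cancer cell line growth, read out with a cell viability assay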
Description: SANGER: Inhibition of human NCI-H810 cell growth in a cell viability assay.

OAW-28 = test: cells; format: functional, cell-based; conditions: Homo sapiens;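 further: growth inhibition of OAW-28 cells, read out with a cell viability assay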
Description: SANGER: Inhibition of human OAW-28 cell growth in a cell viability assay.

OVCAR-3 = test: cells; format: functional, cell-based; conditions: Homo sapiens;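 further: growth inhibition of human OVCAR-3 cells, determined by a cell viability assay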
Description: SANGER: Inhibition of human OVCAR-3 cell growth in a cell viability assay.

OVCAR-8 = test: cells; format: functional, cell-based; conditions: Homo sapiens;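 further: growth inhibition of human OVCAR-8 cells, read out by a cell viability assay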
Description: SANGER: Inhibition of human OVCAR-8 cell growth in a cell viability assay.

P12-Ichikawa = test: cells; format: functional, cell-based; conditions: Homo sapiens
PC-3 = test: cells; format: functional, cell-based; conditions: Homo sapiens;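 further: cell viability assay measuring growth inhibition of PC-3 cells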
Description: SANGER: Inhibition of human PC-3 cell growth in a cell viability assay.

PFSK-1 = test: cells; format: functional, cell-based; conditions: Homo sapiens;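 further: cell viability assay measuring how strongly compounds suppress growth of human PFSK-1 cells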
Description: SANGER: Inhibition of human PFSK-1 cell growth in a cell viability assay.

RPMI-2650 = test: cells; format: functional, cell-based; conditions: Homo sapiens
Description: SANGER: Inhibition of human RPMI-2650 cell growth in a cell viability assay.

RT-112 = test: cells; format: functional, cell-based; conditions: Homo sapiens
Description: SANGER: Inhibition of human RT-112 cell growth in a cell viability assay.

RVH-421 = test: cells; format: functional, cell-based; conditions: Homo sapiens
Description: SANGER: Inhibition of human RVH-421 cell growth in a cell viability assay.

S-117 = test: cells; format: functional, cell-based; conditions: Homo sapiens
Description: SANGER: Inhibition of human S-117 cell growth in a cell viability assay.

SK-LU-1 = test: cells; format: functional, cell-based; conditions: Homo sapiens;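 further: cell viability assay measuring growth inhibition of human SK-LU-1 cells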
Description: SANGER: Inhibition of human SK-LU-1 cell growth in a cell viability assay.

SK-MES-1 = test: cells; format: functional, cell-based; conditions: Homo sapiens;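 further: growth inhibition of human SK-MES-1 cells, read out with a cell viability assay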
Description: SANGER: Inhibition of human SK-MES-1 cell growth in a cell viability assay.

SW1573 = test: cells; format: functional, cell-based; conditions: Homo sapiens;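 further: growth inhibition of SW1573 cells, read out with a cell viability assay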
Description: SANGER: Inhibition of human SW1573 cell growth in a cell viability assay.

SW756 = test: cells; format: functional, cell-based; conditions: Homo sapiens;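 further: growth inhibition of human SW756 cells, read out with a cell viability assay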
Description: SANGER: Inhibition of human SW756 cell growth in a cell viability assay.

SAOS-2 = test: cells; format: functional, cell-based; conditions: Homo sapiens;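 further: growth inhibition of human Saos-2 cells determined by a cell viability assay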
Description: SANGER: Inhibition of human Saos-2 cell growth in a cell viability assay.

TCC-SUP = test: cells; format: functional, cell-based; conditions: Homo sapiens;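 further: growth inhibition of TCC-SUP cells, read out with a cell viability assay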
Description: SANGER: Inhibition of human TCCSUP cell growth in a cell viability assay.

A204 = test: cells; format: functional, cell-based; conditions: Homo sapiens;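 further: growth inhibition of human A204 cells, read out with a cell viability assay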
Description: SANGER: Inhibition of human A204 cell growth in a cell viability assay.

AN3-CA = test: cells; format: functional, cell-based; conditions: Homo sapiens;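 further: growth inhibition of human AN3-CA cells measured by a cell viability assay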
Description: SANGER: Inhibition of human AN3-CA cell growth in a cell viability assay.

ASPC1 = test: cells; format: functional, cell-based; conditions: Homo sapiens;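 further: growth inhibition of AsPC-1 cells, read out with a cell viability assay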
Description: SANGER: Inhibition of human AsPC-1 cell growth in a cell viability assay.

BL-70 = test: SANGER: Inhibition of human BL-70 cell growth in a cell viability assay.; format: functional, cell-based
C32 = test: cells; format: functional, cell-based; conditions: Homo sapiens;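 further: cell viability assay, with IC50 reflecting inhibition of C32 cell growth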
Description: SANGER: Inhibition of human C32 cell growth in a cell viability assay.

CAKI-1 = test: cells; format: functional, cell-based; conditions: Homo sapiens;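 further: growth inhibition of CAKI-1 cells, measured by a cell viability assay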
Description: SANGER: Inhibition of human CAKI-1 cell growth in a cell viability assay.

CAL-148 = test: cells; format: functional, cell-based; conditions: Homo sapiens
Description: SANGER: Inhibition of human CAL-148 cell growth in a cell viability assay.

CAL-85-1 = test: cells; format: functional, cell-based; conditions: Homo sapiens;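 further: growth inhibition of human CAL-85-1 cells, read out with a cell viability assay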
Description: SANGER: Inhibition of human CAL-85-1 cell growth in a cell viability assay.

UO-31 = test: cells; format: functional, cell-based; conditions: Homo sapiens
Description: SANGER: Inhibition of human U031 cell growth in a cell viability assay.

UACC-62 = test: cells; format: functional, cell-based; conditions: Homo sapiens;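 further: growth inhibition of human UACC-62 cells, read out by a cell viability assay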
Description: SANGER: Inhibition of human UACC-62 cell growth in a cell viability assay.

CAMA-1 = test: cells; format: functional, cell-based; conditions: Homo sapiens;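 further: growth inhibition of CAMA-1 cells, read out with a cell viability assay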
Description: SANGER: Inhibition of human CAMA-1 cell growth in a cell viability assay.

CESS = test: SANGER: Inhibition of human CESS cell growth in a cell viability assay.; format: functional, cell-based
CHP-212 = test: cells; format: functional, cell-based; conditions: Homo sapiens
Description: SANGER: Inhibition of human CHP-212 cell growth in a cell viability assay.

CMK = test: cells; format: functional, cell-based; conditions: Homo sapiens;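 further: growth inhibition of CMK cells, read out as cell viability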
Description: SANGER: Inhibition of human CMK cell growth in a cell viability assay.

O=c1[nH]c2ccccc2n1C1CCN(Cc2ccc(-c3nc4cc5[nH]cnc5cc4nc3-c3ccccc3)cc2)CC1
pIC50 (COLO-741): < 5.59 | pIC50 (DK-MG): < 5.59 | pIC50 (Daoy): < 5.59 | pIC50 (G-402): 5.75 | pIC50 (HCC38): < 5.59 | pIC50 (HCC70): 6.12 | pIC50 (HEC-1): < 5.59 | pIC50 (HuCCT-1): < 5.59 | pIC50 (IMR-5): < 5.59 | pIC50 (JIYOYE): < 5.59 | pIC50 (KYSE-520 cell line): < 5.59 | pIC50 (KYSE-70 cell line): < 5.59 | pIC50 (L-540): < 5.59 | pIC50 (LB647-SCLC): < 5.59 | pIC50 (LCLC-103H cell line): < 5.59 | pIC50 (LP-1): < 5.59 | pIC50 (M14): < 5.59 | pIC50 (MC-IXC): 5.69 | pIC50 (MCF7): < 5.59 | pIC50 (MDA-MB-157): < 5.59 | pIC50 (MDA-MB-175-VII): < 5.59 | pIC50 (MDA-MB-231): < 5.59 | pIC50 (MG-63): < 5.59 | pIC50 (MIA PaCa-2): < 5.59 | pIC50 (MKN-45): < 5.59 | pIC50 (NALM-6): 5.67 | pIC50 (NCI-H1417): < 5.59 | pIC50 (NCI-H1522): < 5.59 | pIC50 (NCI-H2122): < 5.59 | pIC50 (NCI-H441): < 5.59 | pIC50 (NCI-H522): < 5.59 | pIC50 (NCI-H64): < 5.59 | pIC50 (NCI-H810): < 5.59 | pIC50 (OAW-28): < 5.59 | pIC50 (OVCAR-3): 5.73 | pIC50 (OVCAR-8): < 5.59 | pIC50 (P12-Ichikawa): < 5.59 | pIC50 (PC-3): < 5.59 | pIC50 (PFSK-1): < 5.59 | pIC50 (RPMI-2650): < 5.59 | pIC50 (RT-112): < 5.59 | pIC50 (RVH-421): < 5.59 | pIC50 (S-117): < 5.59 | pIC50 (SK-LU-1): < 5.59 | pIC50 (SK-MES-1): 5.68 | pIC50 (SW1573): < 5.59 | pIC50 (SW756): < 5.59 | pIC50 (SAOS-2): < 5.59 | pIC50 (TCC-SUP): < 5.59 | pIC50 (A204): < 5.59 | pIC50 (AN3-CA): 5.78 | pIC50 (ASPC1): < 5.59 | pIC50 (BL-70): < 5.59 | pIC50 (C32): < 5.59 | pIC50 (CAKI-1): < 5.59 | pIC50 (CAL-148): < 5.59 | pIC50 (CAL-85-1): < 5.59 | pIC50 (UO-31): < 5.59 | pIC50 (UACC-62): < 5.59 | pIC50 (CAMA-1): < 5.59 | pIC50 (CESS): < 5.59 | pIC50 (CHP-212): < 5.59 | pIC50 (CMK): < 5.59

Fc1cc(-c2cc[nH]/c(=N/c3ccc(-n4cnc(N5CCOCC5)n4)cc3)n2)cc(N2CCOCC2)c1
pIC50 (COLO-741): < 5.29 | pIC50 (DK-MG): < 5.29 | pIC50 (Daoy): 6.06 | pIC50 (G-402): 6.59 | pIC50 (HCC38): 5.76 | pIC50 (HCC70): 6.46 | pIC50 (HEC-1): 5.67 | pIC50 (HuCCT-1): 6.26 | pIC50 (IMR-5): 5.69 | pIC50 (JIYOYE): 6.58 | pIC50 (KYSE-520 cell line): 6.35 | pIC50 (KYSE-70 cell line): 6.20 | pIC50 (L-540): 6.17 | pIC50 (LB647-SCLC): < 5.29 | pIC50 (LCLC-103H cell line): 6.87 | pIC50 (LP-1): 6.32 | pIC50 (M14): 6.47 | pIC50 (MC-IXC): 6.90 | pIC50 (MCF7): 6.41 | pIC50 (MDA-MB-157): 6.34 | pIC50 (MDA-MB-175-VII): 5.53 | pIC50 (MDA-MB-231): 6.01 | pIC50 (MG-63): 6.17 | pIC50 (MIA PaCa-2): 5.85 | pIC50 (MKN-45): 6.00 | pIC50 (NALM-6): 6.67 | pIC50 (NCI-H1417): < 5.29 | pIC50 (NCI-H1522): 6.05 | pIC50 (NCI-H2122): 6.62 | pIC50 (NCI-H441): < 5.29 | pIC50 (NCI-H522): 6.05 | pIC50 (NCI-H64): 6.06 | pIC50 (NCI-H810): 6.68 | pIC50 (OAW-28): 5.84 | pIC50 (OVCAR-3): 6.25 | pIC50 (OVCAR-8): 6.39 | pIC50 (P12-Ichikawa): 5.42 | pIC50 (PC-3): 5.34 | pIC50 (PFSK-1): 6.09 | pIC50 (RPMI-2650): 6.65 | pIC50 (RT-112): 6.47 | pIC50 (RVH-421): 6.38 | pIC50 (S-117): < 5.29 | pIC50 (SK-LU-1): 6.01 | pIC50 (SK-MES-1): 6.82 | pIC50 (SW1573): 6.05 | pIC50 (SW756): 5.69 | pIC50 (SAOS-2): 5.75 | pIC50 (TCC-SUP): < 5.29 | pIC50 (A204): 6.78 | pIC50 (AN3-CA): 6.48 | pIC50 (ASPC1): 5.42 | pIC50 (BL-70): 6.60 | pIC50 (C32): < 5.29 | pIC50 (CAKI-1): 6.48 | pIC50 (CAL-148): 5.31 | pIC50 (CAL-85-1): 6.06 | pIC50 (UO-31): 6.29 | pIC50 (UACC-62): 6.43 | pIC50 (CAMA-1): < 5.29 | pIC50 (CESS): 6.47 | pIC50 (CHP-212): 6.54 | pIC50 (CMK): 6.26
